Laboratory results from patent US20140341846A1, “METHODS OF INHIBITING PHOTORECEPTOR APOPTOSIS” (The Regents of The University of Michigan, priority 2009, published 2014).
Entries after “also recorded” stand apart in the source; their conditions may differ.

How the values were obtained:
[1] = system: photoreceptors (outer nuclear layer); assay: ONL cell counts and thickness 2 months after retinal detachment (Met study); type: in vivo, Brown Norway rats; settings: 50 μg subretinal at time of detachment; after 2 months of retinal detachment
Method: (§1) Retinal-RPE separation was created in Brown Norway rats by subretinal injection of 1% hyaluronic acid. Met12, derived from the Fas-binding extracellular domain of the oncoprotein Met, was injected into the subretinal space at the time of separation. […] Extrinsic apoptotic pathway was induced in 661W cells using a Fas-activating antibody in the presence or absence of Met12. Caspase 3, caspase 8, and caspase 9 activities were measured with calorimetric and luminescent assays in retinal extracts and cell lysates. Terminal deoxynucleotidyl transferase dUTP nick-end labeling (TUNEL) was performed in retinal sections 3 days after separation. Histology was performed in retinal sections 2 months after retinal detachment.
(§2) Rodents were anesthetized with a 50:50 mix of ketamine (100 mg/mL) and xylazine (20 mg/mL), and pupils were dilated with topical phenylephrine (2.5%) and tropicamide (1%). […]
(§3) Photoreceptor cell apoptosis was quantified as the percentage of total cells in the outer nuclear layer (ONL) that were TUNEL positive. […] The total number of cells in the ONL was measured in a similar fashion. The total thickness of the retina (measured from the outer edge of the ONL to the inner limiting membrane) was measured in three places in each of three non-overlapping high power fields (40×) at the maximal height of the retinal detachment per section and averaged for each eye. […]

caspase 8 = assay: Caspase 8 activity in detached retinas (Met study); type: in vivo, Brown Norway rats; settings: 50 μg subretinal at time of detachment; 24 hours after detachment
Method: as §1
(§4) Rodents were anesthetized with a 50:50 mix of ketamine (100 mg/mL) and xylazine (20 mg/mL), and pupils were dilated with topical phenylephrine (2.5%) and tropicamide (1%). A 20-gauge microvitreoretinal blade (Walcott Scientific, Marmora, N.J.) was used to create a sclerotomy 2 mm posterior to the limbus, carefully avoiding lens damage. […]
(§5) Caspase 3, caspase 8 and caspase 9 activities were measured with colorimetric tetrapeptide cleavage assay kits, per the manufacturer's instructions (Bio-Vision, Mountain View, Calif.). […] Absorbance was measured at 405 nm in a microplate reader (Spectra-MAX 190, Molecular Devices, Sunnyvale, Calif.). […]

caspase 3 = assay: Caspase 3 activity in detached retinas (Met study); type: in vivo, Brown Norway rats; settings: 50 μg subretinal
Method: as §1, §4, §5

[2] = system: Fas-mediated caspase 8 activation in 661W cells; assay: Fas-Ab induced caspase 8 activity in 661W cells; type: cell-based; settings: 500 ng/ml Fas-Ab, 48 hours after treatment
Method: The 661W cell line was maintained in Dulbecco's modified Eagle's medium containing 10% fetal bovine serum, 300 mg/L glutamine, 32 mg/L putrescine, 40 μL/L of β-mercaptoethanol, and 40 μg/L of both hydrocortisone 21-hemisuccinate and progesterone. The media also contained penicillin (90 units/ml) and streptomycin (0.09 mg/ml). Cells were grown at 37° C. in a humidified atmosphere of 5% CO2 and 95% air.
In cell culture experiments, caspase 8 activity was measured by a commercially available luminescent tetrapeptide (LETD) cleavage assay kit (Promega, Madison, Wis.). The 661W cells were seeded in 96-well plates (Nunc, Rochester, N.Y.) at 1500 cells/well for 24 hours prior to treatment. Cells were pre-treated with various concentrations of Met12, mMet, or vehicle for 1 hour prior to treatment with 500 ng/ml of Fas-agonistic Jo2 monoclonal antibody (BD Biosciences, San Jose, Calif.). Caspase 8 activity was measured at various time points by incubating the cells with the pro-luminescent substrate in 96-well plates following manufacturer's instructions. Controls included untreated cells and wells with no cells. Luminescence was measured in a plate reader luminometer (Turner Biosystems, Sunnyvale Calif.).

caspase 9 = assay: Caspase 9 activity in detached retinas (Met study); type: in vivo, Brown Norway rats; settings: 50 μg subretinal
Method: as §1, §4, §5

[3] = system: photoreceptors (outer nuclear layer); assay: TUNEL staining 3 days after retinal detachment (Met study); type: in vivo, Brown Norway rats; settings: 50 μg subretinal
Method: as §1, §2, §3

Jurkat cells = Jurkat cells (Zou et al. Nat Med. 2007); cited from earlier work

Sequence	increase in ONL cell counts compared with mMet-injected retinas [1]	increase in ONL thickness measurements compared with mMet-injected retinas [1]	reduction of caspase 8 activity in detached retinas (caspase 8)	reduction of caspase 3 activity in detached retinas (caspase 3; after 24 hours)	effect on Fas-Ab induced caspase 8 activation [2]	reduction of caspase 9 activity in detached retinas (caspase 9; after 24 hours)	fewer TUNEL-positive photoreceptors as compared with mMet-injected separated retinas [3]	protection from FasL induced apoptosis (Jurkat cells)	caspase 8 activity in detached retinas compared to attached retinas (caspase 8)	effect on caspase 3 activity level in detached retinas (caspase 3; 24 hours after detachment)	effect on caspase 9 activity level in detached retinas (caspase 9; 24 hours after detachment)
HHIYLGAVNYIY [Met12]	37%	27%	approximately 50%	approximately 50%	inhibited by Met12 treatment in a dose dependent manner; also recorded: full inhibition	approximately 50%	~77%	protects			
HHGSDHERNYIY [mMet, reference compound]					no effect				significantly increased	did not affect	did not affect
